What was measured:
[1] = Hydrolytic stability assay at pH 2; format: physicochemical; conditions: buffer pH 2, 37° C., compounds of the invention
Protocol: The hydrolytic stability assay investigates the stability of a compound in an aqueous buffer system. Standard solution stability assay is run in 0.05 M Phosphate buffer at pH 7.4 (pH of blood plasma) at 37° C. As compounds in the GI tract are exposed to a wide variety of pHs any relevant pH (as pH 2 to simulate the acidic condition of the GI tract in the following experiment) can be chosen. Compounds are incubated in relevant solution at 37° C. and analyzed by HPLC immediately after incubation and after 1, 2 and 24 hrs. Degradation rate (decay in %) is calculated by relating peak areas after 1, 2 and 24 hrs to the time zero injection.
Compound is available as 10 mM in DMSO (solution 1). 2.5 μL of solution 1 is dissolved in 1 mL acetonitrile leading to solution 2. Poorly soluble compounds may demand another dilution step of solution 2 (1:5 and 1:10 respectively) in Acetonitrile). Solution 2 is incubated at 37° C. in a tempered HPLC autosampler. 1 mL buffer pH 2 is transferred into an HPLC vial. 100 μL of solution 2 is added to the buffer pH 2 solution and mixed thoroughly. Immediately after mixing the combined solution is injected into the HPLC to give the time zero injection. Injections are repeated after 1, 2 and 24 hrs.
The degradation rate (decay in %) is calculated using HPLC software Millennium and Excel respectively.

Mps-1 kinase [2] = target: T1, Mps-1 kinase (Homo sapiens, UniProt P33981); assay: Mps-1 kinase assay with 2 mM ATP (TR-FRET)
T1 sequence (P33981 1-857): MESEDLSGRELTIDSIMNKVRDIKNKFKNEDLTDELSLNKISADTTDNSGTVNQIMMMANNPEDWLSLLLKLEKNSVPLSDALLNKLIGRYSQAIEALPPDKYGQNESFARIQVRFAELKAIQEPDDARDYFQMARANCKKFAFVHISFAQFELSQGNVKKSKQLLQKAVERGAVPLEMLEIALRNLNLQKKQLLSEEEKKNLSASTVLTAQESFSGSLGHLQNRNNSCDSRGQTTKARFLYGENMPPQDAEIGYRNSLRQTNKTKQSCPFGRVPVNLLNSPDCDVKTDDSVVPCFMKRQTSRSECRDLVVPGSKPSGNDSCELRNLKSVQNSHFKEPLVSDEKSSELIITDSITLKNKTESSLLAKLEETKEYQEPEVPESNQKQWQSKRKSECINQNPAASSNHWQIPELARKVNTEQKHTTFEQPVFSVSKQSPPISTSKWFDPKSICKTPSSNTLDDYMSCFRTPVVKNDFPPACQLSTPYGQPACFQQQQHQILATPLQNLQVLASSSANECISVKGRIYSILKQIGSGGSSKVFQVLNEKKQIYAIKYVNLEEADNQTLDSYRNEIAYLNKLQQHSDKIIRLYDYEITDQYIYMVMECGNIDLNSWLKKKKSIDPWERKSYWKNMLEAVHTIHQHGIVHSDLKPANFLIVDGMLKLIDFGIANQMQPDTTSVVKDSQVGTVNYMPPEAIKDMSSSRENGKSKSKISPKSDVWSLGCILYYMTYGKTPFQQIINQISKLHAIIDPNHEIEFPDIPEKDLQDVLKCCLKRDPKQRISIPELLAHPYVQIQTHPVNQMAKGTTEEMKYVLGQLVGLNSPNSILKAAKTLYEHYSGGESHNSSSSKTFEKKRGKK

Mps-1 kinase [3] = target: T1, Mps-1 kinase; assay: Mps-1 kinase assay with 10 μM ATP (TR-FRET)

SMILES	Hydrolysis at pH 2; Decay in % after 24 h [1]	IC50 (Mps-1 kinase [2])	IC50 (Mps-1 kinase [3])
CCOc1cc(C(=O)NC(C)(C)CO)ccc1Nc1nc2ccc(-c3ccc(NC(=O)Cc4ccc(F)cc4)cc3)cn2n1 [Example 01.9, 3-ethoxy-4-{[6-(4-{[(4-fluorophenyl)acetyl]amino}phenyl)[1,2,4]triazolo-[1,5-α]pyridin-2-yl]amino}-N-(1-hydroxy-2-methylpropan-2-yl)benzamide]	<10%	≤ 1 nM	≤ 1 nM
CCOc1cc(C(=O)N(CC)CC)ccc1Nc1nc2ccc(-c3ccc(NC(=O)Cc4ccc(F)cc4)cc3)cn2n1 [Example 01.10, 3-ethoxy-N,N-diethyl-4-{[6-(4-{[(4-fluorophenyl)acetyl]amino}phenyl)-[1,2,4]triazolo[1,5-α]pyridin-2-yl]amino}benzamide]	<10%	≤ 1 nM	≤ 1 nM
O=C(Cc1ccc(F)cc1)Nc1ccc(-c2ccc3nc(Nc4ccc(C(=O)NCCO)cc4OCC(F)(F)F)nn3c2)cc1 [Example 01.11, 4-{[6-(4-{[(4-fluorophenyl)acetyl]amino}phenyl)[1,2,4]triazolo[1,5-α]-pyridin-2-yl]amino}-N-(2-hydroxyethyl)-3-(2,2,2-trifluoroethoxy)benzamide]	<10%	≤ 1 nM	≤ 1 nM
COc1cc(C(=O)NC(C)(C)CO)ccc1Nc1nc2ccc(-c3ccc(NC(=O)Cc4ccc(F)cc4)cc3)cn2n1 [Example 01.13, 4-{[6-(4-{[(4-fluorophenyl)acetyl]amino}phenyl)[1,2,4]triazolo[1,5-α]-pyridin-2-yl]amino}-N-(1-hydroxy-2-methylpropan-2-yl)-3-methoxy-benzamide]	<10%	≤ 1 nM	≤ 1 nM
COc1cc(C(=O)N(C)CCN(C)C(C)=O)ccc1Nc1nc2ccc(-c3ccc(NC(=O)Cc4ccc(F)cc4)cc3)cn2n1 [Example 01.14, N-{2-[acetyl(methyl)amino]ethyl}-4-{[6-(4-{[(4-fluorophenyl)acetyl]amino}-phenyl)[1,2,4]triazolo[1,5-α]pyridin-2-yl]amino}-3-methoxy-N-methylbenzamide]	<10%	≤ 1 nM	≤ 1 nM
CCN(CC)C(=O)c1ccc(Nc2nc3ccc(-c4ccc(NC(=O)Cc5ccc(F)cc5)cc4)cn3n2)c(OCC(F)(F)F)c1 [Example 01.22, N,N-diethyl-4-{[6-(4-{[(4-fluorophenyl)acetyl]amino}phenyl)[1,2,4]triazolo-[1,5-α]pyridin-2-yl]amino}-3-(2,2,2-trifluoroethoxy)benzamide]	<10%	≤ 1 nM	≤ 1 nM
CCN(CC)C(=O)c1ccc(Nc2nc3ccc(-c4ccc(NC(=O)Cc5ccc(F)cc5)cc4)cn3n2)c(OC(C)C)c1 [Example 01.25, N,N-diethyl-4-{[6-(4-{[(4-fluorophenyl)acetyl]amino}phenyl)[1,2,4]triazolo-[1,5-α]pyridin-2-yl]amino}-3-isopropoxybenzamide]	<10%	1.3 nM	≤ 1 nM

Next, values leading:

Hydrolysis at pH 2; Decay in % after 24 h [1]	IC50 (Mps-1 kinase [2])	IC50 (Mps-1 kinase [3])	SMILES
<10%	≤ 1 nM	≤ 1 nM	CCOc1cc(C(=O)NCCO)ccc1Nc1nc2ccc(-c3ccc(NC(=O)Cc4ccc(F)cc4)cc3)cn2n1 [Example 01.8, 3-ethoxy-4-{[6-(4-{[(4-fluorophenyl)acetyl]amino}phenyl)[1,2,4]triazolo-[1,5-α]pyridin-2-yl]amino}-N-(2-hydroxyethyl)benzamide]
<10%	≤ 1 nM	≤ 1 nM	COc1cc(C(=O)NCC(C)(C)O)ccc1Nc1nc2ccc(-c3ccc(NC(=O)Cc4ccc(F)cc4)cc3)cn2n1 [Example 01.12, 4-{[6-(4-{[(4-fluorophenyl)acetyl]amino}phenyl)[1,2,4]triazolo[1,5-α]-pyridin-2-yl]amino}-N-(2-hydroxy-2-methylpropyl)-3-methoxybenzamide]
<10%	≤ 1 nM	≤ 1 nM	CCNC(=O)c1ccc(Nc2nc3ccc(-c4ccc(NC(=O)Cc5ccc(F)cc5)cc4)cn3n2)c(OCC)c1 [Example 01.16, 3-ethoxy-N-ethyl-4-{[6-(4-{[(4-fluorophenyl)acetyl]amino}phenyl)[1,2,4]-triazolo[1,5-α]pyridin-2-yl]amino}benzamide]
<10%	≤ 1 nM	≤ 1 nM	CCOc1cc(C(=O)NCC(C)(C)O)ccc1Nc1nc2ccc(-c3ccc(NC(=O)Cc4ccc(F)cc4)cc3)cn2n1 [Example 01.17, 3-ethoxy-4-{[6-(4-{[(4-fluorophenyl)acetyl]amino}phenyl)[1,2,4]triazolo-[1,5-α]pyridin-2-yl]amino}-N-(2-hydroxy-2-methylpropyl)benzamide]
<10%	≤ 1 nM	≤ 1 nM	CCOc1cc(C(=O)N(CC)CCOC)ccc1Nc1nc2ccc(-c3ccc(NC(=O)Cc4ccc(F)cc4)cc3)cn2n1 [Example 01.18, 3-ethoxy-N-ethyl-4-{[6-(4-{[(4-fluorophenyl)acetyl]amino}phenyl)[1,2,4]-triazolo[1,5-α]pyridin-2-yl]amino}-N-(2-methoxyethyl)benzamide]
<10%	≤ 1 nM	≤ 1 nM	CCOc1cc(C(=O)N(C)CCO)ccc1Nc1nc2ccc(-c3ccc(NC(=O)Cc4ccc(F)cc4)cc3)cn2n1 [Example 01.19, 3-ethoxy-4-{[6-(4-{[(4-fluorophenyl)acetyl]amino}phenyl)[1,2,4]triazolo-[1,5-α]pyridin-2-yl]amino}-N-(2-hydroxyethyl)-N-methylbenzamide]
<10%	≤ 1 nM	≤ 1 nM	CNCCN(C)C(=O)c1ccc(Nc2nc3ccc(-c4ccc(NC(=O)Cc5ccc(F)cc5)cc4)cn3n2)c(OC)c1 [Example 01.20, 4-{[6-(4-{[(4-fluorophenyl)acetyl]amino}phenyl)[1,2,4]triazolo[1,5-α]-pyridin-2-yl]amino}-3-methoxy-N-methyl-N-[2-(methylamino)ethyl]-benzamide]
<10%	≤ 1 nM	≤ 1 nM	CC(C)(C)NC(=O)c1ccc(Nc2nc3ccc(-c4ccc(NC(=O)Cc5ccc(F)cc5)cc4)cn3n2)c(OCC(F)(F)F)c1 [Example 01.21, N-tert-butyl-4-{[6-(4-{[(4-fluorophenyl)acetyl]amino}phenyl)[1,2,4]-triazolo[1,5-α]pyridin-2-yl]amino}-3-(2,2,2-trifluoroethoxy)benzamide]
<10%	1.1 nM	≤ 1 nM	CCCOc1cc(C(=O)N(CC)CC)ccc1Nc1nc2ccc(-c3ccc(NC(=O)Cc4ccc(F)cc4)cc3)cn2n1 [Example 01.23, N,N-diethyl-4-{[6-(4-{[(4-fluorophenyl)acetyl]amino}phenyl)[1,2,4]triazolo-[1,5-α]pyridin-2-yl]amino}-3-propoxybenzamide]
<10%	1.2 nM	≤ 1 nM	CCN(CC)C(=O)c1ccc(Nc2nc3ccc(-c4ccc(NC(=O)Cc5ccc(F)cc5)cc4)cn3n2)c(OCC2CC2)c1 [Example 01.24, 3-(cyclopropylmethoxy)-N,N-diethyl-4-{[6-(4-{[(4-fluorophenyl)acetyl]-amino}phenyl)[1,2,4]triazolo[1,5-α]pyridin-2-yl]amino}benzamide]
<10%	21 nM	≤ 1 nM	CCN(CC)C(=O)c1ccc(Nc2nc3ccc(-c4ccc(NC(=O)Cc5ccc(F)cc5)cc4)cn3n2)c(OCCOC)c1 [Example 01.26, N,N-diethyl-4-{[6-(4-{[(4-fluorophenyl)acetyl]amino}phenyl)[1,2,4]triazolo-[1,5-α]pyridin-2-yl]amino}-3-(2-methoxyethoxy)benzamide]

Reference: patent US20140120087A1, “TRIAZOLOPYRIDINES” (BAYER INTELLECTUAL PROPERTY GMBH, priority 2011, published 2014)
